Test [1] deals with T1, Kir2.2 (Homo sapiens, UniProt Q14500).
T1 construct: expressed in transfected cells
T1 sequence (Q14500 1-433): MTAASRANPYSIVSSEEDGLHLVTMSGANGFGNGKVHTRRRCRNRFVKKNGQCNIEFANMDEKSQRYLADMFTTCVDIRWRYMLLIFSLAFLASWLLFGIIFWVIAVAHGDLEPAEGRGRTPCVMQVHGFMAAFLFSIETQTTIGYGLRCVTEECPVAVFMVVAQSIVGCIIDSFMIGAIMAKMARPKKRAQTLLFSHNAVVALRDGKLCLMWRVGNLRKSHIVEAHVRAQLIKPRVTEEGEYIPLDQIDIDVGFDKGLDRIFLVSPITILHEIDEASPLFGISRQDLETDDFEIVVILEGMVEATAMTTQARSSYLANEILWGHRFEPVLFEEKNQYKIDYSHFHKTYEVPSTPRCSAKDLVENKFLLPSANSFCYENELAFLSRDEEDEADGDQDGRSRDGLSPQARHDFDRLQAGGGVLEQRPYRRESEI
In words: Kir2.2 manual patch clamp (MPC). The test is classed as cell-based. How it is done: Manual Patch Claim Assay Experimental Conditions
Whole-cell patch-clamp electrophysiology was used to record K ir2.1 currents from a stably transfected monoclonal T-Rex-HEK-293 cell line with a tetracycline-inducible promoter expressing human Kir2.1, as described previously1 cultured in a 5% CO2 incubator at 37°C. Kir2.1 expression was induced by overnight treatment with 1 µg/mL tetracycline. Cells were dissociated using 0.25% Trypsin-EDTA and seeded onto 12 mm circular coverslips (Electron Microscopy Sciences, PA, USA) for same-day whole-cell patch-clamp recordings. Kir2.1 currents were recorded at room temperature using an AxoPatch 200B amplifier with Clampex 10.7 software (Molecular Devices, USA). The voltage-clamp protocol consisted of a 1-s step to -120 mV from a -80 mV holding potential, followed by a 2-s ramp to +40 mV, repeated every 10 s. Data were sampled at 5 kHz and filtered at 1 kHz. Patch pipettes, pulled from 1.5 mm OD thin-walled capillaries (Warner Instruments, MA, USA) using a Sutter P-1000 puller (Sutter Instrument, CA, USA), had resistances of 2–3 MΩ when filled with intracellular solution containing (mM): 135 KCl, 10 HEPES, 1 EGTA, 2 MgCl2, 2 Na2ATP (pH 7.35, adjusted with KOH). The extracellular solution contained (mM): 135 NaCl, 5 KCl, 2 CaCl2, 1 MgCl2, 5 Glucose, 10 HEPES, 10 Sucrose (pH 7.35, adjusted with NaOH). After establishing stable baseline Kir2.1 currents, cells were perfused with compounds at concentrations of 0.03–30 µM until response saturation (within minutes).
Recordings concluded with a 2 mM Ba2+ solution to isolate Ba2+-sensitive currents, with compound responses expressed as fractions of this current. Current amplitudes at the -120 mV step were analyzed using Clampfit 11.2 (Molecular Devices). IC50 values were calculated by fitting the Hill equation to concentration-response curves (CRCs) using variable -slope nonlinear regression in GraphPad Prism 10.4 (GraphPad Software).
MPC experiments for Kir2.2 and Kir2.3 were conducted in an analogous fashion.1
On the technique in general: Patch clamp records ionic current or voltage across a cell membrane.

In test [2] the target is T2, Kir4.1 (Homo sapiens, UniProt P78508).
T2 sequence (P78508 1-379): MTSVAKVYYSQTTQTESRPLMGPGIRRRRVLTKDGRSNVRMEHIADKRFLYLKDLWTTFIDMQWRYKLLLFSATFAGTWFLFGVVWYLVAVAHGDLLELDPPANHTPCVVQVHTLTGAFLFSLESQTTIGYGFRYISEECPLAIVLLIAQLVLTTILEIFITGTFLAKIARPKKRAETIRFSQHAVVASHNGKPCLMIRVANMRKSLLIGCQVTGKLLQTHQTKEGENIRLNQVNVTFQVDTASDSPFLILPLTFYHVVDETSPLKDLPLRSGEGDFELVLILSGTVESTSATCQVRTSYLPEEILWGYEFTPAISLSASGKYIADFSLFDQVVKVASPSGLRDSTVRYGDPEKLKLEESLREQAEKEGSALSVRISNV
In words: Kir4.1 thallium flux assay. It counts as cell-based. As to conditions: selective up to 10 μM.

The target in test [3] is T3, human Kir2.1 (Homo sapiens, UniProt P63252).
T3 construct: expressed in transfected cells
T3 sequence (P63252 1-427): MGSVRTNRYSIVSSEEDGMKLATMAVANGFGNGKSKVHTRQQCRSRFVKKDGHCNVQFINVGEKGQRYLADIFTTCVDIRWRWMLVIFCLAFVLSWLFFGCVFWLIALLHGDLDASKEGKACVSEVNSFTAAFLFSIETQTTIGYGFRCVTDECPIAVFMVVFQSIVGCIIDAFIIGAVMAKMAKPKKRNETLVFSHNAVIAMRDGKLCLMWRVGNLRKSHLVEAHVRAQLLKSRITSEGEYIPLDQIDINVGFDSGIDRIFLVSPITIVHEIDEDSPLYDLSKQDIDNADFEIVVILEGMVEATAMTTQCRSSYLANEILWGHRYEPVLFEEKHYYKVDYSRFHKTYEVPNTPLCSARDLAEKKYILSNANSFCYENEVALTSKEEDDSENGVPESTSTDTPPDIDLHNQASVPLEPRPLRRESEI
Details: method as in PMID 21615117. As to conditions: pH 7.4; read-out: Kir2.1 manual patch clamp IC50 (original report); cited from earlier work.

Test [4] has as its target T2, Kir4.1. Details: method as in PMID 21615117. The note with it: cited from earlier work.
Test [5] has as its system Kir7.1. Set-up: method as in PMID 21615117. As to conditions: cited from earlier work.

Consider five compounds from article PMC12434521, “Characterization of Next-Generation Inhibitors for the Inward-Rectifier Potassium Channel Kir2.1: Discovery of VU6080824” (ACS Medicinal Chemistry Letters, 2025).

The IC50 is the point on the concentration scale where inhibition reaches its midpoint.

Where two headings read alike, the source gives them in different places.

Turning to `[2H]C([2H])([2H])Oc1ccc(CNCc2ccc(-c3cccc(OC)c3)cc2)cc1` [Compound 9], the “Kir2.1/Kir2.2 Selectivity (MPC)” value in test [1] is recorded as 1.4 fold.

In the case of `[2H]C([2H])([2H])Oc1cccc(-c2ccc(CNCc3ccc(OC)cc3)cc2)c1` [Compound 11], the “Kir2.1/Kir2.2 Selectivity (MPC)” value in test [1] turned out to be 0.73 fold.

As to `[2H]C([2H])([2H])Oc1ccc(CNCc2ccc(-c3cccc(OC([2H])([2H])[2H])c3)cc2)cc1` [Compound 13], the “Kir2.1/Kir2.2 Selectivity (MPC)” value in test [1] amounted to 3.2 fold.

With `COc1ccc(CNCc2ccc(-c3cccc(OC)c3)cc2)cc1` [Compound 5s, 1-(3′-Methoxy-[1,1’-biphenyl]-4-yl)-N-(4-methoxybenzyl)methanamine], the concentration for half-maximal inhibition (IC50) is above 10 µM in test [2] and 750 nM in test [1]. Moreover, the “Kir2.1/Kir2.2 Selectivity (MPC)” value is listed as 2.1 fold in test [1] and “approximately 2 fold” in test [1] (listed as VU6080824).

With `COc1ccc(CNCc2cccc3ccccc23)cc1` [ML133, N-(4-methoxybenzyl)-1-(naphthalen-1-yl)methanamine, reference compound], the results for the IC50 in test [3], in test [4] and in test [5] were 1800 nM, above 30 µM and above 30 µM, respectively.
